Results taken from US20220363662A1, “COMPOUNDS AS LXR AGONISTS” (Integral Biosciences Privated Limited, priority 2021, published 2022).
pEC50, pIC50: −log10 of the molar value.

What was measured:
LXR beta = biological target: T1, LXR beta (Homo sapiens, UniProt P55055); assay: LXR beta agonist assay (Lanthascreen TR-FRET); assay type: biochemical; settings: LXR beta-LBD 5 nM, read-out: LXR-β EC50
T1 construct: 5 μL of 4×LXR beta-LBD was added to each well (final concentration 5 nM); purchased Thermofisher PV4658
T1 sequence (P55055 222-460 limits assumed): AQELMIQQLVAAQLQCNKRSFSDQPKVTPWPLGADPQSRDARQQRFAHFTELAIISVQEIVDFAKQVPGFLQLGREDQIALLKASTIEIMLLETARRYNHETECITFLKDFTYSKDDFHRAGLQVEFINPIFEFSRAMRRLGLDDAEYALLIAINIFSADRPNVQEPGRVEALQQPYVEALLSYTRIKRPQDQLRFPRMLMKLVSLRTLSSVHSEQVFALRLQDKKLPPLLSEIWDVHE
Protocol: EC50 values of compounds against LXR beta were determined at Integral BioSciences (India) using Lanthascreen TR-FRET (Thermofisher, Cat #PV4658). Assay was performed in a 20 μL final volume in a Black 384-well plate (Corning, Cat #4511). Dose response curve for the compounds were prepared in duplicates with starting concentration at 30 μM and a three-fold titration was performed. The reaction buffer consisted of TR-FRET Coregulator Buffer G. To the compound dilution, 5 μL of 4×LXR beta-LBD was added to each well (final concentration 5 nM). An equal volume (5 μL) containing 4×Fl-D22/Tb-anti GST antibody (final concentration 100 nM/10 nM) was added to initiate the enzyme reaction and the reaction was incubated for 60 min at 22° C. after which the plates were read using BioTek Plate reader for TR-FRET every hour up to 4 hours.
Analysis was done using the standard curve by non-linear regression, variable slope inhibitor curve fits (Graph-Pad Prism) and EC50's of compounds were determined wherever possible.

HepG2 = assay: Cell viability assay (resazurin) in HepG2; assay type: cell-based; settings: Homo sapiens, 96 hr exposure
Protocol: (§1) HepG2 (ATCC® HB-8065™), hepatocellular carcinoma, A549 (ATCC® CCL-185™), lung epithelial carcinoma, MCF7 (ATCC® HTB-22™), mammary gland epithelial carcinoma, MDA-MB-231 (ATCC® HTB-26™), TNBC, MiaPaCa-2 (ATCC® CRL-1420™) & Panc-1 (ATCC® CRL-1469™), pancreatic epithelial carcinoma, HCT116 (ATCC® CCL-247™), colon epithelial carcinoma and U87MG (ATCC® HTB-14™), brain epithelial carcinoma cell lines respectively were seeded in the respective medium (DMEM, Cat #10569044 with 10% FBS, Cat #16000044; Gibco for HepG2, A549, MCF7, MDA-MB-231, MiaPaCa-2, Panc-1, HCT116 and MEM, Cat #11095080 with 10% FBS for U87MG). Cells were allowed to grow at 37° C. for 24 hr in 5% CO2 (culture conditions) in a Nuaire incubator (humidified). Serially diluted compounds (100 μl) were added to the culture plate 24 hr later and the cultures were further incubated in culture conditions for 96 hr. Experiment was terminated at the completion of 96 hr exposure to the drug by replacing the medium with 100 μl of 1 mM of resazurin (R7017; Sigma) prepared in culture medium and the plates were further incubated in culture conditions for 4 hr. Fluorescence was then measured using a multimodal plate reader (Biotek Synergy Neo) at an excitation wavelength of 535 nm and emission wavelength of 590 nm to obtain relative fluorescence units. Data analysis was done by subtracting the background fluorescence (only medium blank) value from each reading and then normalizing with the vehicle control (DMSO treated cells) to obtain percent survival/proliferation. Percent survival at different doses was used to calculate IC50 by fitting the curve to the “four-parameter variable slope logistic model” using Prism Graph Pad.

A549 = assay: Cell viability assay (resazurin) in A549; assay type: cell-based; settings: Homo sapiens, 96 hr exposure
Protocol: as §1

HCT116 = assay: Cell viability assay (resazurin) in HCT116; assay type: cell-based; settings: Homo sapiens, HCT-116; 96 hr exposure
Protocol: as §1

MDA-MB-231 = assay: Cell viability assay (resazurin) in MDA-MB-231; assay type: cell-based; settings: Homo sapiens, 96 hr exposure, read-out: MDA_MB-231 Cell IC50
Protocol: as §1

THP1 = assay: Cell viability assay in THP1; assay type: cell-based; settings: Homo sapiens, THP-1

`CC(C)[C@@](O)(C(=O)N1CCC2(CC1)CN(C1CCN(c3ccc(C(=O)N(C)C)c(Cl)c3)CC1)C2)C(F)(F)F` (single isomer, unassigned) [Compound 1.73] was tested, and the pEC50 (LXR beta) was 5.85 and the pIC50 (HepG2) was under 4.52.

Molecule `CN(C)C(=O)c1ccc(-c2cncc(C3=CCN(S(=O)(=O)c4ccccc4Cl)CC3)c2)cc1Cl` [Compound 1.39, 2-chloro-4-(5-(1-(2-chlorophenylsulfonyl)-1,2,3,6-tetrahydropyridin-4-yl)pyridin-3-yl)-N,N-dimethylbenzamide] has a pIC50 (A549) of under 4.52, a pIC50 (HCT116) of under 4.52 and a pIC50 (MDA-MB-231) of under 4.52. The pIC50 (THP1) was under 4.52.

In the case of `CC(C)C(O)(C(=O)N1CCC(N2CC[C@H](Nc3ccc(C(=O)N(C)C)c(Cl)c3)C2)CC1)C(F)(F)F` (stereo partly drawn) [Compound 1.40, 2-chloro-4-((3S)-1-(1-(2-hydroxy-3-methyl-2-(trifluoromethyl)butanoyl)piperidin-4-yl)pyrrolidin-3-ylamino)-N,N-dimethylbenzamide], the pEC50 (LXR beta) was 4.63, the pIC50 (A549) was under 4.52 and the pIC50 (HCT116) was under 4.52. For the same molecule, the pIC50 (MDA-MB-231) was under 4.52 and the pIC50 (THP1) was under 4.52.

`CN(C)C(=O)c1ccc(NC2CN(C3CCN(C(=O)C(C)(C)c4ccccc4)CC3)C2)cc1Cl` [Compound 1.41, 2-chloro-N,N-dimethyl-4-(1-(1-(2-methyl-2-phenylpropanoyl)piperidin-4-yl)azetidin-3-ylamino)benzamide] was tested, and the pEC50 (LXR beta) was 5.24, the pIC50 (A549) was under 4.52 and the pIC50 (HCT116) was under 4.52. For the same molecule, the pIC50 (MDA-MB-231) was under 4.52 and the pIC50 (THP1) was under 4.52.

`CN(C)C(=O)c1ccc(NC2CN(C3CCN(C(=O)C4(c5cccc(F)c5)CCC4)CC3)C2)cc1Cl` [Compound 1.42, 2-chloro-4-(1-(1-(1-(3-fluorophenyl)cyclobutanecarbonyl)piperidin-4-yl)azetidin-3-ylamino)-N,N-dimethylbenzamide] was tested, and the pEC50 (LXR beta) was 5.51, the pIC50 (A549) was under 4.52 and the pIC50 (HCT116) was 4.82. For the same molecule, the pIC50 (MDA-MB-231) was 4.79 and the pIC50 (THP1) was under 4.52.

For `CC(C)C(O)(C(=O)N1CCC(N2CC(Nc3ccc(C(=O)N(C)C)c(Cl)c3)C2)CC1)C(F)(F)F` (centres unmarked) [Compound 1.43, 2-chloro-4-(1-(1-(2-hydroxy-3-methyl-2-(trifluoromethyl)butanoyl)piperidin-4-yl)azetidin-3-ylamino)-N,N-dimethylbenzamide], the pEC50 (LXR beta) was 5.33, the pIC50 (A549) was under 4.52 and the pIC50 (HCT116) was under 4.52. For the same molecule, the pIC50 (MDA-MB-231) was under 4.52 and the pIC50 (THP1) was under 4.52.

`CN(C)C(=O)c1ccc(NC2CN(C3CCN(C(=O)C4(c5ccccc5)CCC4)CC3)C2)cc1Cl` [Compound 1.48, 2-chloro-N,N-dimethyl-4-(1-(1-(1-phenylcyclobutanecarbonyl)piperidin-4-yl)azetidin-3-ylamino)benzamide] gave a pIC50 (A549) of 4.70, a pIC50 (HCT116) of 4.91 and a pIC50 (MDA-MB-231) of under 4.52. For the same molecule, the pIC50 (THP1) was under 4.52.

`CN(C)C(=O)c1ccc(N[C@@H]2CCCN(C3CCN(C(=O)[C@](O)(c4ccccc4)C(F)(F)F)CC3)C2)cc1Cl` [Compound 1.71, 2-chloro-N,N-dimethyl-4-((R)-1′-((R)-3,3,3-trifluoro-2-hydroxy-2-phenylpropanoyl)-1,4′-bipiperidin-3-ylamino)benzamide] showed a pEC50 (LXR beta) of 5.93 and a pIC50 (HepG2) of under 4.53.

`CN(C)C(=O)c1ccc(O[C@@H]2CCN(C3CCN(C(=O)[C@](O)(c4ccccc4)C(F)(F)F)CC3)C2)cc1Cl` [Compound 1.72, 2-chloro-N,N-dimethyl-4-((R)-1-(1-((R)-3,3,3-trifluoro-2-hydroxy-2-phenylpropanoyl)piperidin-4-yl)pyrrolidin-3-yloxy)benzamide] showed a pEC50 (LXR beta) of 5.27 and a pIC50 (HepG2) of under 4.52.

`CN(C)C(=O)c1ccc(N2CC3(CCN(C4CCN(C(=O)[C@](O)(c5ccccc5)C(F)(F)F)CC4)CC3)C2)cc1Cl` [Compound 1.75, 2-chloro-N,N-dimethyl-4-(7-(1-((R)-3,3,3-trifluoro-2-hydroxy-2-phenylpropanoyl)piperidin-4-yl)-2,7-diazaspiro[3.5]nonan-2-yl)benzamide] gave a pEC50 (LXR beta) of under 4.52 and a pIC50 (HepG2) of under 4.52.

Molecule `CN(C)C(=O)c1ccc(O[C@H]2CCN(C3CCN(C(=O)[C@](O)(c4ccccc4)C(F)(F)F)CC3)C2)cc1Cl` [Compound 1.76, 2-chloro-N,N-dimethyl-4-((S)-1-(1-((R)-3,3,3-trifluoro-2-hydroxy-2-phenylpropanoyl)piperidin-4-yl)pyrrolidin-3-yloxy)benzamide] has a pEC50 (LXR beta) of under 4.53 and a pIC50 (HepG2) of under 4.52.

`CC(C)C(O)(C(=O)N1CCC(N2CCC3(CC2)CN(c2ccc(C(=O)N(C)C)c(Cl)c2)C3)CC1)C(F)(F)F` (centres unmarked) [Compound 1.78, 2-chloro-4-(7-(1-(2-hydroxy-3-methyl-2-(trifluoromethyl)butanoyl)piperidin-4-yl)-2,7-diazaspiro[3.5]nonan-2-yl)-N,N-dimethylbenzamide] showed a pEC50 (LXR beta) of under 4.52 and a pIC50 (HepG2) of under 4.52.

Work on `CN(C)C(=O)c1ccc(N2CCC(N3CC4(CCN(C(=O)[C@](O)(c5ccccc5)C(F)(F)F)CC4)C3)CC2)cc1Cl` [Compound 1.79, 2-chloro-N,N-dimethyl-4-(4-(7-((R)-3,3,3-trifluoro-2-hydroxy-2-phenylpropanoyl)-2,7-diazaspiro[3.5]nonan-2-yl)piperidin-1-yl)benzamide] yielded a pEC50 (LXR beta) of 5.37 and a pIC50 (HepG2) of 4.57.

For `O=C(NCC(F)F)c1ccc(NC2CN(C3CCN(C(=O)C(O)(c4cccc(Cl)c4)C(F)(F)F)CC3)C2)cc1Cl` (centres unmarked) [Compound 1.130, 2-chloro-4-((1-(1-(2-(3-chlorophenyl)-3,3,3-trifluoro-2-hydroxypropanoyl)piperidin-4-yl)azetidin-3-yl)amino)-N-(2,2-difluoroethyl)benzamide], the pEC50 (LXR beta) was 5.80.

For `O=C(c1ccc(NC2CN(C3CCN(C(=O)C(O)(c4cccc(Cl)c4)C(F)(F)F)CC3)C2)cc1Cl)N1CC(F)(F)C1` (centres unmarked) [Compound 1.131, 1-(4-(3-((3-chloro-4-(3,3-difluoroazetidine-1-carbonyl)phenyl)amino)azetidin-1-yl)piperidin-1-yl)-2-(3-chlorophenyl)-3,3,3-trifluoro-2-hydroxypropan-1-one], the pEC50 (LXR beta) was 5.75.

In the case of `O=C(c1ccc(NC2CN(C3CCN(C(=O)C(O)(c4cccc(Cl)c4)C(F)(F)F)CC3)C2)cc1Cl)N1CCC(F)(F)C1` (centres unmarked) [Compound 1.132, 1-(4-(3-((3-chloro-4-(3,3-difluoropyrrolidine-1-carbonyl)phenyl)amino)azetidin-1-yl)piperidin-1-yl)-2-(3-chlorophenyl)-3,3,3-trifluoro-2-hydroxypropan-1-one], the pEC50 (LXR beta) was 6.21.

Molecule `O=C(c1ccc(NC2CN(C3CCN(C(=O)C(O)(c4cccc(Cl)c4)C(F)(F)F)CC3)C2)cc1Cl)N1CCC(F)(F)CC1` (centres unmarked) [Compound 1.133, 1-(4-(3-((3-chloro-4-(4,4-difluoropiperidine-1-carbonyl)phenyl)amino)azetidin-1-yl)piperidin-1-yl)-2-(3-chlorophenyl)-3,3,3-trifluoro-2-hydroxypropan-1-one] has a pEC50 (LXR beta) of 6.00.

With `CC(=O)N1CCN(C(=O)c2ccc(NC3CN(C4CCN(C(=O)C(O)(c5cccc(Cl)c5)C(F)(F)F)CC4)C3)cc2Cl)CC1` (centres unmarked) [Compound 1.134, 1-(4-(3-((4-(4-acetylpiperazine-1-carbonyl)-3-chlorophenyl)amino)azetidin-1-yl)piperidin-1-yl)-2-(3-chlorophenyl)-3,3,3-trifluoro-2-hydroxypropan-1-one] the pEC50 (LXR beta) was 6.07.
